From US7514443B2, “Substituted pyrazolo[1,5-a]pyrimidines as inhibitors of metabotropic glutamate receptors” (Hoffmann-La Roche Inc., priority 2003, dated 2009)

Cc1cc(-c2cnn3c(C(F)(F)F)cc(-c4ccc(F)c(Cl)c4)nc23)cc(C)n1 [Example 4.21, 5-(3-Chloro-4-fluoro-phenyl)-3-(2,6-dimethyl-pyridin-4-yl)-7-trifluoromethyl-pyrazolo[1,5-a]pyrimidine]
melting point: 271 °C

Cc1cc(-c2cnn3c(C(F)(F)F)cc(-c4ccc(Cl)c(Cl)c4)nc23)cc(C)n1 [Example 4.22, 5-(3,4-Dichloro-phenyl)-3-(2,6-dimethyl-pyridin-4-yl)-7-trifluoromethyl-pyrazolo[1,5-a]pyrimidine]
melting point: 281 °C

Cc1cc(-c2cnn3c(C(F)(F)F)cc(-c4ccc(C(F)(F)F)cc4)nc23)cc(C)n1 [Example 4.23, 5-(4-Trifluoromethyl-phenyl)-3-(2,6-dimethyl-pyridin-4-yl)-7-trifluoromethyl-pyrazolo[1,5-a]pyrimidine]
melting point: 257 °C

Cc1cc(-c2cnn3c(C(F)(F)F)cc(-c4ccc(C(F)(F)F)c(F)c4)nc23)cc(C)n1 [Example 4.25, 5-(3-Fluoro-4-trifluoromethyl-phenyl)-3-(2,6-dimethyl-pyridin-4-yl)-7-trifluoromethyl-pyrazolo[1,5-a]pyrimidine]
melting point: 245 °C

Cc1ccc(-c2cc(C(F)(F)F)n3ncc(-c4cccnc4)c3n2)cc1C(F)(F)F [Example 4.26, 5-(4-Methyl-3-trifluoromethyl-phenyl)-3-pyridin-3-yl-7-trifluoromethyl-pyrazolo[1,5-a]pyrimidine]
melting point: 182 °C

Cc1ccc(-c2cc(C(F)(F)F)n3ncc(-c4ccncc4)c3n2)cc1C(F)(F)F [Example 4.27, 5-(4-Methyl-3-trifluoromethyl-phenyl)-3-pyridin-4-yl-7-trifluoromethyl-pyrazolo[1,5-a]pyrimidine]
melting point: 218 °C

Cc1cc(-c2cnn3c(C(F)(F)F)cc(-c4ccc(C)c(C(F)(F)F)c4)nc23)cc(C)n1 [Example 4.28, 5-(4-Methyl-3-trifluoromethyl-phenyl)-3-(2,6-dimethyl-pyridin-4-yl)-7-trifluoromethyl-pyrazolo[1,5-a]pyrimidine]
melting point: 258 °C

Cc1cc(-c2cnn3c(C(F)(F)F)cc(-c4ccc(Cl)cc4)nc23)ccn1 [Example 4.29, 5-(4-Chloro-phenyl)-3-(2-methyl-pyridin-4-yl)-7-trifluoromethyl-pyrazolo[1,5-a]pyrimidine]
melting point: 220 °C

Cc1cc(-c2cnn3c(C(F)(F)F)cc(-c4ccc(Cl)c(C)c4)nc23)ccn1 [Example 4.30, 5-(4-Chloro-3-methyl-phenyl)-3-(2-methyl-pyridin-4-yl)-7-trifluoromethyl-pyrazolo[1,5-a]pyrimidine]
melting point: 240 °C

Cc1cc(-c2cnn3c(C(F)(F)F)cc(-c4ccc(F)c(Cl)c4)nc23)ccn1 [Example 4.31, 5-(3-Chloro-4-fluoro-phenyl)-3-(2-methyl-pyridin-4-yl)-7-trifluoromethyl-pyrazolo[1,5-a]pyrimidine]
melting point: 292 °C

Cc1cc(-c2cnn3c(C(F)(F)F)cc(-c4ccc(Cl)c(Cl)c4)nc23)ccn1 [Example 4.32, 5-(3,4-Dichloro-phenyl)-3-(2-methyl-pyridin-4-yl)-7-trifluoromethyl-pyrazolo[1,5-a]pyrimidine]
melting point: 275 °C

Cc1cc(-c2cnn3c(C(F)(F)F)cc(-c4ccc(C(F)(F)F)cc4)nc23)ccn1 [Example 4.33, 5-(4-Trifluoromethyl-phenyl)-3-(2-methyl-pyridin-4-yl)-7-trifluoromethyl-pyrazolo[1,5-a]pyrimidine]
melting point: 243 °C

Cc1cc(-c2cnn3c(C(F)(F)F)cc(-c4cccc(C(F)(F)F)c4)nc23)ccn1 [Example 4.34, 5-(3-Trifluoromethyl-phenyl)-3-(2-methyl-pyridin-4-yl)-7-trifluoromethyl-pyrazolo[1,5-a]pyrimidine]
melting point: 232 °C

Cc1cc(-c2cc(C(F)(F)F)n3ncc(-c4cccnc4)c3n2)ccc1C(F)(F)F [Example 4.36, 5-(3-Methyl-4-trifluoromethyl-phenyl)-3-pyridin-3-yl-7-trifluoromethyl-pyrazolo[1,5-a]pyrimidine]
melting point: 177 °C

Cc1cc(-c2cc(C(F)(F)F)n3ncc(-c4ccncc4)c3n2)ccc1C(F)(F)F [Example 4.37, 5-(3-Methyl-4-trifluoromethyl-phenyl)-3-pyridin-4-yl-7-trifluoromethyl-pyrazolo[1,5-a]pyrimidine]
melting point: 227 °C

Cc1cc(-c2cnn3c(C(F)(F)F)cc(-c4ccc(C(F)(F)F)c(C)c4)nc23)cc(C)n1 [Example 4.38, 5-(3-Methyl-4-trifluoromethyl-phenyl)-3-(2,6-dimethyl-pyridin-4-yl)-7-trifluoromethyl-pyrazolo[1,5-a]pyrimidine]
melting point: 253 °C

Cc1cc(-c2cnn3c(C(F)(F)F)cc(-c4ccc(C(F)(F)F)c(C)c4)nc23)ccn1 [Example 4.39, 5-(3-Methyl-4-trifluoromethyl-phenyl)-3-(2-methyl-pyridin-4-yl)-7-trifluoromethyl-pyrazolo[1,5-a]pyrimidine]
melting point: 237 °C

CCOc1ccc(-c2cc(C(F)(F)F)n3ncc(-c4cccnc4)c3n2)cc1C(F)(F)F [Example 4.40, 5-(4-Ethoxy-3-trifluoromethyl-phenyl)-3-pyridin-3-yl-7-trifluoromethyl-pyrazolo[1,5-a]pyrimidine]
melting point: 178 °C

CCOc1ccc(-c2cc(C(F)(F)F)n3ncc(-c4ccncc4)c3n2)cc1C(F)(F)F [Example 4.41, 5-(4-Ethoxy-3-trifluoromethyl-phenyl)-3-pyridin-4-yl-7-trifluoromethyl-pyrazolo[1,5-a]pyrimidine]
melting point: 233 °C

FC(F)(F)COc1ccc(-c2cc(C(F)(F)F)n3ncc(-c4cccnc4)c3n2)cc1C(F)(F)F [Example 4.42, 5-(4-Trifluoroethoxy-3-trifluoromethyl-phenyl)-3-pyridin-3-yl-7-trifluoromethyl-pyrazolo[1,5-a]pyrimidine]
melting point: 181 °C

CCOc1ccc(-c2cc(C(F)(F)F)n3ncc(-c4ccnc(C)c4)c3n2)cc1C(F)(F)F [Example 4.44, 5-(4-Ethoxy-3-trifluoromethyl-phenyl)-3-(2-methyl-pyridin-4-yl)-7-trifluoromethyl-pyrazolo[1,5-a]pyrimidine]
melting point: 250 °C

Cc1cc(-c2cnn3c(C(F)(F)F)cc(-c4ccc(OCC(F)(F)F)c(C(F)(F)F)c4)nc23)cc(C)n1 [Example 4.45, 5-[4-(2,2,2-Trifluoroethoxy)-3-trifluoromethyl-phenyl]-3-(2,6-dimethyl-pyridin-4-yl)-7-trifluoromethyl-pyrazolo[1,5-a]pyrimidine]
melting point: 229 °C

Cc1cc(-c2cnn3c(C(F)(F)F)cc(-c4ccc(OCC(F)(F)F)c(C(F)(F)F)c4)nc23)ccn1 [Example 4.46, 5-[4-(2,2,2-Trifluoroethoxy)-3-trifluoromethyl-phenyl]-3-(2-methyl-pyridin-4-yl)-7-trifluoromethyl-pyrazolo[1,5-a]pyrimidine]
melting point: 210 °C

CCOc1cc(-c2cc(C(F)(F)F)n3ncc(-c4ccncc4)c3n2)ccc1C(F)(F)F [Example 4.47, 5-(3-Ethoxy-4-trifluoromethyl-phenyl)-3-pyridin-4-yl-7-trifluoromethyl-pyrazolo[1,5-a]pyrimidine]
melting point: 251 °C

CCOc1cc(-c2cc(C(F)(F)F)n3ncc(-c4cc(C)nc(C)c4)c3n2)ccc1C(F)(F)F [Example 4.48, 3-(2,6-Dimethyl-pyridin-4-yl)-5-(3-ethoxy-4-trifluoromethyl-phenyl)-7-trifluoromethyl-pyrazolo[1,5-a]pyrimidine]
melting point: 257 °C

CCOc1cc(-c2cc(C(F)(F)F)n3ncc(-c4ccnc(C)c4)c3n2)ccc1C(F)(F)F [Example 4.49, 5-(3-Ethoxy-4-trifluoromethyl-phenyl)-3-(2-methyl-pyridin-4-yl)-7-trifluoromethyl-pyrazolo[1,5-a]pyrimidine]
melting point: 226 °C

FC(F)(F)COc1cc(-c2cc(C(F)(F)F)n3ncc(-c4ccncc4)c3n2)ccc1C(F)(F)F [Example 4.50, 3-Pyridin-4-yl-5-[3-(2,2,2-trifluoro-ethoxy)-4-trifluoromethyl-phenyl]-7-trifluoromethyl-pyrazolo[1,5-a]pyrimidine]
melting point: 251 °C

Cc1cc(-c2cnn3c(C(F)(F)F)cc(-c4ccc(C(F)(F)F)c(OCC(F)(F)F)c4)nc23)cc(C)n1 [Example 4.51, 3-(2,6-Dimethyl-pyridin-4-yl)-5-[3-(2,2,2-trifluoro-ethoxy)-4-trifluoromethyl-phenyl]-7-trifluoromethyl-pyrazolo[1,5-a]pyrimidine]
melting point: 245 °C

Cc1cc(-c2cnn3c(C(F)(F)F)cc(-c4ccc(C(F)(F)F)c(OCC(F)(F)F)c4)nc23)ccn1 [Example 4.52, 3-(2-Methyl-pyridin-4-yl)-5-[3-(2,2,2-trifluoro-ethoxy)-4-trifluoromethyl-phenyl]-7-trifluoromethyl-pyrazolo[1,5-a]pyrimidine]
melting point: 201 °C

FC(F)(F)c1ccc(-c2cc(C(F)(F)F)n3ncc(-c4ccncc4)c3n2)cc1C(F)(F)F [Example 4.53, 5-(3,4-Bis-trifluoromethyl-phenyl)-3-pyridin-4-yl-7-trifluoromethyl-pyrazolo[1,5-a]pyrimidine]
melting point: 209 °C

Cc1cc(-c2cnn3c(C(F)(F)F)cc(-c4ccc(C(F)(F)F)c(C(F)(F)F)c4)nc23)ccn1 [Example 4.54, 5-(3,4-Bis-trifluoromethyl-phenyl)-3-(2-methyl-pyridin-4-yl)-7-trifluoromethyl-pyrazolo[1,5-a]pyrimidine]
melting point: 223 °C

FC(F)(F)c1cc(-c2ccc(Br)cc2)nc2c(-c3ccncc3)cnn12 [Example 4.55, 5-(4-Bromo-phenyl)-3-pyridin-4-yl-7-trifluoromethyl-pyrazolo[1,5-a]pyrimidine]
melting point: 289 °C

Cc1cc(-c2cnn3c(C(F)(F)F)cc(-c4ccc(Br)cc4)nc23)ccn1 [Example 4.56, 5-(4-Bromo-phenyl)-3-(2-methyl-pyridin-4-yl)-7-trifluoromethyl-pyrazolo[1,5-a]pyrimidine]
melting point: 226 °C

Cc1cc(-c2cnn3c(C(F)(F)F)cc(-c4ccc(Br)cc4)nc23)cc(C)n1 [Example 4.57, 5-(4-Bromo-phenyl)-3-(2,6-dimethyl-pyridin-4-yl)-7-trifluoromethyl-pyrazolo[1,5-a]pyrimidine]
melting point: 258 °C
